Measured values published in patent US5763430A, “Method of treating a viral infection by administering a steroid compound” (priority 1995, dated 1998).
In brackets after ≈: the same amount, converted by molar mass. Where two headings read alike, the source gives them in different places.

Legend:
Format in all cases: cell-based
[1] = tested on: C. albicans; test: antibiotic activity (MIC); conditions: Candida albicans
Description: (§1) Thus, it is possible to achieve an antimicrobial steroid with or without squalamine-like pharmacological activity.

[2] = tested on: E. coli; test: antibiotic activity (MIC); conditions: Escherichia coli
Description: as §1

[3] = tested on: P. aerug; test: antibiotic activity (MIC)
Description: as §1

[4] = tested on: S. aureus; test: antibiotic activity (MIC); conditions: Staphylococcus aureus
Description: as §1

[5] = tested on: human microvascular cells; test: inhibition of endothelial cell cord formation in vitro; further: key: +: Inhibition of angiogenesis; -: No inhibition of angiogenesis; Toxic; *: cell rounding @ 10 µg/ml
Description: Endothelial cells have the capacity in vitro to form tubular aggregates resembling capillaries in various early stages of formation. This conversion occurs under relatively specific conditions, in which essential growth factors along with an effective substratum are provided. It has been shown that both the interaction of growth factors with the endothelial cell and its attachment to a substratum activate the NHE. The activation of this exchanger is believed to be required for subsequent morphologic transformation of the endothelial cell into a multicellular tubular structure.
To assess the effect of compounds on the cord-like structures formed by human microvascular cells when plated in the presence of VEGF (Vascular Endothelial Growth Factor) and basic fibroblast growth factor on a collagen matrix, a standard cord formation assay was used.

| Compound | MIC ([1]; C. albicans, read-out: MIC) [µg/mL] | MIC ([2]; E. coli, read-out: MIC) [µg/mL] | MIC ([3]; P. aerug, read-out: MIC) [µg/mL] | MIC ([4]; S. aureus, read-out: MIC) [µg/mL] | MIC [2] [µg/mL] | MIC [4] [µg/mL] | MIC [1] [µg/mL] | MIC [3] [µg/mL] | effect on endothelial cord formation ([5]; 1.0 μg/ml) | effect on endothelial cord formation ([5]; 10.0 μg/ml) | effect on endothelial cord formation ([5]; 0.1 μg/ml) |
| --- | --- | --- | --- | --- | --- | --- | --- | --- | --- | --- | --- |
| C[C@H](CCC(=O)O)[C@H]1CC[C@H]2[C@@H]3CC[C@@H]4C[C@H](NCCN)CC[C@]4(C)[C@H]3C[C@H](O)[C@]12C [Compound 417] | 32 (≈ 73.6 µM) | 64 (≈ 147 µM) | 128 (≈ 294 µM) | 16 to 32 (≈ 36.8 to 73.6 µM) |  |  |  |  |  |  |  |
| CC(C)CCC[C@@H](C)[C@H]1CC[C@H]2[C@@H]3[C@H](O)C[C@H]4C[C@@H](N)CC[C@]4(C)[C@H]3CC[C@]12C [Compound 1364] | 2 (≈ 4.95 µM) | > 256 | > 256 | 2 (≈ 4.95 µM) |  |  |  |  |  |  |  |
| CC(C)C(O)CC[C@@H](C)[C@H]1CC[C@H]2[C@@H]3[C@H](O)C[C@H]4C[C@H](NCCCNCCCCN)CC[C@]4(C)[C@H]3CC[C@]12C (stereo partly drawn) [Compound 387, 3α-(1,5,10-Triazadecyl) cholestan-7α,24.xi.-diol] | 64 (≈ 117 µM) | 128 (≈ 234 µM) | 256 (≈ 467 µM) | 16 to 32 (≈ 29.2 to 58.4 µM) |  |  |  |  |  |  |  |
| C[C@H](CCC(=O)O)[C@H]1CC[C@H]2[C@@H]3[C@H](O)C[C@H]4C[C@H](NCCCNCCCCN)CC[C@]4(C)[C@H]3CC[C@]12C [Compound 382] | 32 (≈ 61.6 µM) | 64 (≈ 123 µM) | 32 (≈ 61.6 µM) | 16 (≈ 30.8 µM) |  |  |  |  |  |  |  |
| CC(C)CCC[C@@H](C)[C@H]1CC[C@H]2[C@@H]3CC[C@H]4C[C@H](NCCCN5CCCCN=C5N)CC[C@]4(C)[C@H]3CC[C@]12C [Compound 393] | 32 (≈ 59.2 µM) |  | > 256 |  | > 256 | 3 (≈ 5.55 µM) |  |  |  |  |  |
| COC(=O)CC[C@@H](C)[C@H]1CC[C@H]2[C@@H]3CC[C@@H]4C[C@H](NCCCNCCCCNCCCN)CC[C@]4(C)[C@H]3C[C@H](O)[C@]12C [Compound 448] | 8 (≈ 13.5 µM) | 16 (≈ 27.1 µM) | 8 (≈ 13.5 µM) | 2 (≈ 3.38 µM) |  |  |  |  |  |  |  |
| CC(C)C(O)CC[C@@H](C)[C@H]1CC[C@H]2[C@@H]3[C@H](O)C[C@H]4C[C@@H](NCCCNCCCCN(C)C)CC[C@]4(C)[C@H]3CC[C@]12C (stereo partly shown) [MSI-1239A] |  | 64 (≈ 111 µM) |  | 8 to 16 (≈ 13.9 to 27.8 µM) |  |  | 64 (≈ 111 µM) | 128 (≈ 222 µM) |  |  |  |
| CC(C)C(CC[C@@H](C)[C@H]1CC[C@H]2[C@@H]3[C@H](O)C[C@H]4C[C@H](NCCCNCCCCN)CC[C@]4(C)[C@H]3CC[C@]12C)OS(=O)(=O)O (stereo partly shown) [Compound 388, 3-Episqualamine] | 16 (≈ 25.5 µM) | 4 to 8 (≈ 6.37 to 12.7 µM) | 16 (≈ 25.5 µM) | 2 to 4 (≈ 3.18 to 6.37 µM) |  |  |  |  |  |  |  |
| COC(=O)CC[C@@H](C)[C@H]1CC[C@H]2[C@@H]3[C@H](O)C[C@H]4C[C@@H](NCCCNCCCCNCCCN)CC[C@]4(C)[C@H]3CC[C@]12C [Compound 396] | 16 (≈ 27.1 µM) | 64 (≈ 108 µM) | 128 (≈ 217 µM) | 2 to 4 (≈ 3.38 to 6.77 µM) |  |  |  |  |  |  |  |
| COC(=O)CC[C@@H](C)[C@H]1CC[C@H]2[C@@H]3[C@H](O)C[C@@H]4C[C@H](NCCCNCCCCN)CC[C@]4(C)[C@H]3CC[C@]12C [Compound 356] | 64 (≈ 120 µM) | 32 to 64 (≈ 59.9 to 120 µM) | 64 (≈ 120 µM) | 4 (≈ 7.49 µM) |  |  |  |  |  |  |  |
| C[C@H](CCC(=O)O)[C@H]1CC[C@H]2[C@@H]3C[C@@H](O)[C@H]4C[C@@H](NCCCNCCCCNCCCN)CC[C@]4(C)[C@H]3CC[C@]12C [Compound 467] | 4 (≈ 6.93 µM) | 16 (≈ 27.7 µM) | 8 (≈ 13.9 µM) | 16 (≈ 27.7 µM) |  |  |  |  | - | - |  |
| CC(C)C(O)CC[C@@H](C)[C@H]1CC[C@H]2[C@@H]3[C@H](O)C[C@H]4C[C@@H](NCCCNCCCCN)CC[C@]4(C)[C@H]3CC[C@]12C (stereo partly shown) [MSI-1232] | 64 (≈ 117 µM) | 32 (≈ 58.4 µM) | 128 (≈ 234 µM) | 4 to 16 (≈ 7.3 to 29.2 µM) |  |  |  |  |  |  |  |
| CC(C)CCC[C@@H](C)[C@H]1CC[C@H]2[C@@H]3CC[C@H]4C[C@H](NCCCNCCCCNCCCN)CC[C@]4(C)[C@H]3CC[C@]12C [Compound 354] | 16 to 32 (≈ 27.9 to 55.8 µM) | 64 to 128 (≈ 112 to 223 µM) | 64 (≈ 112 µM) | 8 (≈ 14 µM) |  |  |  |  |  |  |  |
| CO[C@@H]1[C@H](OC(=O)/C=C/C=C/C=C/C=C/C(=O)O)CC[C@]2(CO2)[C@H]1[C@@]1(C)O[C@@H]1CC=C(C)C [Fumagillin, reference compound] |  |  |  |  |  |  |  |  |  | + | - |
| C[C@H](CCC(=O)O)[C@H]1CC[C@H]2[C@@H]3[C@H](O)C[C@H]4C[C@@H](NCCCNCCCCN)CC[C@]4(C)[C@H]3CC[C@]12C [Compound 381] | 128 (≈ 246 µM) | 64 (≈ 123 µM) | 32 (≈ 61.6 µM) | 32 (≈ 61.6 µM) |  |  |  |  |  |  |  |
| COC(=O)CC[C@@H](C)[C@H]1CC[C@H]2[C@@H]3[C@H](O)C[C@@H]4C[C@@H](NCCCNCCCCN)CC[C@]4(C)[C@H]3CC[C@]12C [Compound 355] | 256 (≈ 480 µM) | 256 (≈ 480 µM) | > 256 | 64 (≈ 120 µM) |  |  |  |  |  |  |  |
